Measured values: publication PMC3997336 (PLoS ONE, 2014)

Target: T1, MKK7 (Homo sapiens, UniProt O14733)
T1 construct: gene MAP2K7
Assay: biochemical

T1 sequence (O14733 2-419): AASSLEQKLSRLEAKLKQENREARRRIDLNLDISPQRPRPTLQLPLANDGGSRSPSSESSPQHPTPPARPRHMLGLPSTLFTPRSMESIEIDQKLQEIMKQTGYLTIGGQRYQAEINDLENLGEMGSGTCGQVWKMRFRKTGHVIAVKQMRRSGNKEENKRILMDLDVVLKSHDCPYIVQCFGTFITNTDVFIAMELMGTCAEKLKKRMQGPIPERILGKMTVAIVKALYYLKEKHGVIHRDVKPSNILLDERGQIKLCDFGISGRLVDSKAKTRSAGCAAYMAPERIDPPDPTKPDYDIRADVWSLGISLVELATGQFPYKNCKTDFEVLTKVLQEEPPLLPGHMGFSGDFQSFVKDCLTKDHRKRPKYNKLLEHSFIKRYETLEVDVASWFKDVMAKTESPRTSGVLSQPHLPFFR

COc1ccc2c(Cc3ccc(O[Si](C)(C)C(C)(C)C)cc3)c3[n+](cc2c1OC)CCc1cc2c(cc1-3)OCO2 [HWY336] showed an IC50 of 10 µM.
